Results reported in US10906878B2, “Kinase inhibitors for the treatment of disease” (Dana-Farber Cancer Institute, Inc., priority 2013, dated 2021).

Experiments:
Ba/F3 TYK2_E957D = Ba/F3 TYK2_E957D (Homo sapiens (Human), UniProt P29597, E957D); assay: Inhibition of Ba/F3 TYK2_E957D cell line; assay type: cell-based; conditions: read-out: IC50 (μM) Ba/F3 TYK2_E957D
Method: (§1) Growth and inhibition of growth was assessed by MTS assay. This assay, a colorimetric method for determining the number of viable cells, is based on the bioreduction of 3-(4,5-dimethylthiazol-2-yl)-5-(3-carboxymethoxyphenyl)-2-(4-sulfophenyl)-2H-tetrazolium (MTS) by cells to a formazan product that is soluble in cell culture medium, can be detected spectrophotometrically and was performed according to the manufacturer's recommended conditions. Ba/F3 cells were exposed to treatment for 72 hours and the number of cells used per experiment determined empirically to assure linear growth kinetics over that time period. All experimental points were set up in six to twelve wells and all experiments were repeated at least three times. […] The curves were fitted using a non-linear regression model with a sigmoidal dose response.

Ba/F3 TEL-JAK1 = Ba/F3 TEL-JAK1 (Homo sapiens, UniProt P23458); assay: Inhibition of Ba/F3 TEL-JAK1 cell line; assay type: cell-based; conditions: read-out: IC50 (μM) Ba/F3 TEL-JAK1
Method: as §1

ITK = ITK (Homo sapiens (Human), UniProt Q08881); assay: Kinase inhibition ITK; assay type: biochemical
TXK = TXK (Homo sapiens (Human), UniProt P42681); assay: Kinase inhibition TXK; assay type: biochemical
Ba/F3 TEL-JAK3 = Ba/F3 TEL-JAK3 (Homo sapiens, UniProt P52333); assay: Inhibition of Ba/F3 TEL-JAK3 cell line; assay type: cell-based; conditions: read-out: IC50 (μM) Ba/F3 TEL-JAK3
Method: as §1

BLK = BLK (Homo sapiens (Human), UniProt P51451); assay: Kinase inhibition BLK; assay type: biochemical
TEC = TEC (Homo sapiens (Human), UniProt P42680); assay: Kinase inhibition TEC; assay type: biochemical
Ba/F3 TEL-JAK2 = Ba/F3 TEL-JAK2 (Homo sapiens, UniProt O60674); assay: Inhibition of Ba/F3 TEL-JAK2 cell line; assay type: cell-based; conditions: read-out: IC50 (μM) Ba/F3 TEL-JAK2
Method: as §1

Ba/F3 TEL-ABL = Ba/F3 TEL-ABL (Homo sapiens, UniProt P00519); assay: Inhibition of Ba/F3 TEL-ABL cell line; assay type: cell-based; conditions: read-out: IC50 (μM) Ba/F3 TEL-ABL
Method: as §1

Chain of Ba/F3 TEL-JAK3 (P52333 whole entry, looked up, change not shown): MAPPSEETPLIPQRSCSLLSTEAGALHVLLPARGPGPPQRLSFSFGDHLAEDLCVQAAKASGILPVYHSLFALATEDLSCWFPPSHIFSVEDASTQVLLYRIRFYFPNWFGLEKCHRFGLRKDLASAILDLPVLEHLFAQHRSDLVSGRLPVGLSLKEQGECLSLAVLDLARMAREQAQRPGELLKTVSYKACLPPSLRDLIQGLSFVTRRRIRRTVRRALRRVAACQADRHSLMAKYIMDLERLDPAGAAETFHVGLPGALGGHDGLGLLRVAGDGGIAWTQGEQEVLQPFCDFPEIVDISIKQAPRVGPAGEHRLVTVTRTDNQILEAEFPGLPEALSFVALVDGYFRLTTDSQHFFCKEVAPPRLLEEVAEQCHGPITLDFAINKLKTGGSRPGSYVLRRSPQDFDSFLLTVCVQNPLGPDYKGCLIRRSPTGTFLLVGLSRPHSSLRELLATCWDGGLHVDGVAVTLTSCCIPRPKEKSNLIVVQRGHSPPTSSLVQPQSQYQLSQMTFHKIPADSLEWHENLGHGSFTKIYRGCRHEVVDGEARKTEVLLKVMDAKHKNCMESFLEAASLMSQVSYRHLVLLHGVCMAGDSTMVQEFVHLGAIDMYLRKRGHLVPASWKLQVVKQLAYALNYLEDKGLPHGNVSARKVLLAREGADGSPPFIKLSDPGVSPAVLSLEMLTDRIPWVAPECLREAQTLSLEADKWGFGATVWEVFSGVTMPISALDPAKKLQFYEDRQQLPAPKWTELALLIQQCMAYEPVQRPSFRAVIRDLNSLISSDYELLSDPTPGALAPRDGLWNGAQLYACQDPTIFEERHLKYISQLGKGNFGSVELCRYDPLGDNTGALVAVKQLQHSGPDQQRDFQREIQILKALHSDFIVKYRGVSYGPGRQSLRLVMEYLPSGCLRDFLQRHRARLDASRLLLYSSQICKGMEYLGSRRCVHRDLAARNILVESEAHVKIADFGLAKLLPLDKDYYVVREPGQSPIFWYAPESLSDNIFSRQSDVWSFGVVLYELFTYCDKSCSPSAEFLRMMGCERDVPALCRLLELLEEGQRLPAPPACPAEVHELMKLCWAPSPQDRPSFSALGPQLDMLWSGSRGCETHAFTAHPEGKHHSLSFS
Chain of Ba/F3 TEL-ABL (P00519 whole entry, looked up, change not shown): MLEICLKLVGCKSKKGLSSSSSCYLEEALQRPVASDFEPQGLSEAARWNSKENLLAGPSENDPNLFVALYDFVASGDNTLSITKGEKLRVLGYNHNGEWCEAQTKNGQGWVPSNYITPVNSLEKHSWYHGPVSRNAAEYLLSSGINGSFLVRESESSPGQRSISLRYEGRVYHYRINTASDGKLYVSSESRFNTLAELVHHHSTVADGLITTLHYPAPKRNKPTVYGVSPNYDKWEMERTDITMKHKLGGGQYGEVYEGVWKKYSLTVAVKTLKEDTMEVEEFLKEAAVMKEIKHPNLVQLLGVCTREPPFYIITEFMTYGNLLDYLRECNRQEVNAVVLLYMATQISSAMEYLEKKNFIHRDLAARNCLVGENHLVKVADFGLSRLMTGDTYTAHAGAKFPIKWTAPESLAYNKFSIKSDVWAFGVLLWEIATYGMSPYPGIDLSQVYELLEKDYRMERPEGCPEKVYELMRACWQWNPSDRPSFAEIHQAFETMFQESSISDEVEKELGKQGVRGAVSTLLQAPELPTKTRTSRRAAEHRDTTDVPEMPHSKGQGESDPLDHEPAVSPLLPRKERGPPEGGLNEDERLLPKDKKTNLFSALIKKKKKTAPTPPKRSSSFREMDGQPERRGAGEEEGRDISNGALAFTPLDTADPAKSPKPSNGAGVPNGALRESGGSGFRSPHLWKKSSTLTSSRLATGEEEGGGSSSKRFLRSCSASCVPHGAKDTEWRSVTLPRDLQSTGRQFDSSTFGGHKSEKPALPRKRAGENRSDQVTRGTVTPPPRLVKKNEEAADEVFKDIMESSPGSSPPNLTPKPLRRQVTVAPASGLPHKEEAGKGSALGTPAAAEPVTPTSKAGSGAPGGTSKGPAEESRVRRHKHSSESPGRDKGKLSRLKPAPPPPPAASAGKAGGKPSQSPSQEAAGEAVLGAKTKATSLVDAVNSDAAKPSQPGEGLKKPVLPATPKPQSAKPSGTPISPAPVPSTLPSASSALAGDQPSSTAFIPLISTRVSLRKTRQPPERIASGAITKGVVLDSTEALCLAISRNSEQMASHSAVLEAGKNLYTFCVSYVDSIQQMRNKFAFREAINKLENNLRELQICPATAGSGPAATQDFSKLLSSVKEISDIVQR
Chain of BLK (P51451 whole entry): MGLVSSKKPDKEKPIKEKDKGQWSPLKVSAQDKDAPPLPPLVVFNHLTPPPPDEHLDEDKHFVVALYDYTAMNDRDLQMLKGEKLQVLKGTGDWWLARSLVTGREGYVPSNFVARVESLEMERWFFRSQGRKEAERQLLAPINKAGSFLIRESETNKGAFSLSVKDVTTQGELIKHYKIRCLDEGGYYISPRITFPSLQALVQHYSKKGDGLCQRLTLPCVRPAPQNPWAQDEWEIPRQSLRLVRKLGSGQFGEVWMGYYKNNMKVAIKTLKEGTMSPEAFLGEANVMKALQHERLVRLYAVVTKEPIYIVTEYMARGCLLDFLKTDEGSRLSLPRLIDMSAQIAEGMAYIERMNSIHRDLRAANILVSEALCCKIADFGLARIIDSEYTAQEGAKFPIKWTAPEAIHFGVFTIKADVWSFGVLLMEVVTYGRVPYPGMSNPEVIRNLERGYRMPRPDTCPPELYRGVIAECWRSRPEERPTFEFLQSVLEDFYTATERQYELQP
Chain of Ba/F3 TEL-JAK2 (O60674 whole entry, looked up, change not shown): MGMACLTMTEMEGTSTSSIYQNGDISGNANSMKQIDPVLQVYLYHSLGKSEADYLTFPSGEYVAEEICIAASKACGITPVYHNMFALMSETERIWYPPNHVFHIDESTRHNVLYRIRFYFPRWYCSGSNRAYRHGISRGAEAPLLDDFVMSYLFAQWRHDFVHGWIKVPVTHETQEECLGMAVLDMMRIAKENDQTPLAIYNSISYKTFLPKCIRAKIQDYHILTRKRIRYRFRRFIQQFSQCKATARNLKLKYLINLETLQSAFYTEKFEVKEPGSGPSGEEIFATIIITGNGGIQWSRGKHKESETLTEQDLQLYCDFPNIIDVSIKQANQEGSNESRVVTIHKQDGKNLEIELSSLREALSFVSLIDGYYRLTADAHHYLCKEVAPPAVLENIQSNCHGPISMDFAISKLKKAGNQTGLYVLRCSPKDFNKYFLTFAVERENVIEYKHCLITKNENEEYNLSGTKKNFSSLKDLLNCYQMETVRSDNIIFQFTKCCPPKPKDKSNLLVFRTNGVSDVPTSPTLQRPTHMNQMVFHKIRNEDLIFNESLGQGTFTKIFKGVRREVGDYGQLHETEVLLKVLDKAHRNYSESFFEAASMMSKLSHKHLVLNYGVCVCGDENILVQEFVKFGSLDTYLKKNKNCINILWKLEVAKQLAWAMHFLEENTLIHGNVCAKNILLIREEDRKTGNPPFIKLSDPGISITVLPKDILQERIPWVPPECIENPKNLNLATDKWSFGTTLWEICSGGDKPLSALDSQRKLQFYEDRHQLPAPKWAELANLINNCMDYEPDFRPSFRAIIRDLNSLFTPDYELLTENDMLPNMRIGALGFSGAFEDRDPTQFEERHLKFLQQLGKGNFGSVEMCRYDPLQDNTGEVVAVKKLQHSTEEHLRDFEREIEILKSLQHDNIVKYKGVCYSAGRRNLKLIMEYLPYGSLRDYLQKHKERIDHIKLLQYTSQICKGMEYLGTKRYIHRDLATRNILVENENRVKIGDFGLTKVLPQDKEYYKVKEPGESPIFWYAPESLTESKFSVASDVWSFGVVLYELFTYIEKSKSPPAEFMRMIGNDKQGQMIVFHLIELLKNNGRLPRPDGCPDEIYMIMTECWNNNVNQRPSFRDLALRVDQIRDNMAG
Chain of Ba/F3 TEL-JAK1 (P23458 whole entry, looked up, change not shown): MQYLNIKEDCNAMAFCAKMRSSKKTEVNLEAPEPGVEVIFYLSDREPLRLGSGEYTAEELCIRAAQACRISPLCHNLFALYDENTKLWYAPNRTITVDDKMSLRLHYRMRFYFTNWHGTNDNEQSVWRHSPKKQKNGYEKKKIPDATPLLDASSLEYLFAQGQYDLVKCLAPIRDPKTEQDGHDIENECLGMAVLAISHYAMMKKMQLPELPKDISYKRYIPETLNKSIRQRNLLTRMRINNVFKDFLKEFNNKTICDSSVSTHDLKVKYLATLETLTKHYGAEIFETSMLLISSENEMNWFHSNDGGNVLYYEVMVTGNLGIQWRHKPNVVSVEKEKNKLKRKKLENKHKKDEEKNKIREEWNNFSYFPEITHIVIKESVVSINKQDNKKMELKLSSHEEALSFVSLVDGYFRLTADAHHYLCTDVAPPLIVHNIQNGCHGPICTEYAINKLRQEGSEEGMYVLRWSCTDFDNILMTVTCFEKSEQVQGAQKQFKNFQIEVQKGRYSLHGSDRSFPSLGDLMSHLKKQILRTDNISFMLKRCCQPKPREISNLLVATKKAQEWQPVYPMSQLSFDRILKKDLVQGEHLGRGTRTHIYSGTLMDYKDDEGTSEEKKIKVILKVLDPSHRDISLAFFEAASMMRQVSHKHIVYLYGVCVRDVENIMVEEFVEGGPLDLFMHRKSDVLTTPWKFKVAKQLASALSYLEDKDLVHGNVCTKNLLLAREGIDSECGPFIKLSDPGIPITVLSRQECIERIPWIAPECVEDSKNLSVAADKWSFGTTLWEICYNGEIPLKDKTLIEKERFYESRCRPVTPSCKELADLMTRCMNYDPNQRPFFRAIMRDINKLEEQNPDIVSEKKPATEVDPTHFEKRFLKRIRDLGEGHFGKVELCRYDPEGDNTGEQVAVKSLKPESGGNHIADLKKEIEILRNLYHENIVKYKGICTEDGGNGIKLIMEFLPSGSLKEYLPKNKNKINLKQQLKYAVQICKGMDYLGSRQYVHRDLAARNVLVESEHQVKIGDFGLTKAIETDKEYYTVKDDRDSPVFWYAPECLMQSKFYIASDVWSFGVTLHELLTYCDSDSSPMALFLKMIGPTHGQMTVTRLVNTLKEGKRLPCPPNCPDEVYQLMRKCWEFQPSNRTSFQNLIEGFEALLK

`C=CC(=O)Nc1cccc(N(C(=O)OCc2ccccc2)c2ccnc(Nc3cnn(C)c3)n2)c1` [Compound 83A] was tested, and the IC50 (Ba/F3 TYK2_E957D) was 2.95 µM, the IC50 (Ba/F3 TEL-JAK1) was 9 µM and the “Kinase inhibition (% control, 1000 nM compound) ITK” value (ITK) was 66 % control. For the same compound, the “Kinase inhibition (% control, 1000 nM compound) TXK” value (TXK) was 3.8 % control, the IC50 (Ba/F3 TEL-JAK3) was 0.107 µM and the “Kinase inhibition (% control, 1000 nM compound) BLK” value (BLK) was 0.4 % control. For the same compound, the “Kinase inhibition (% control, 1000 nM compound) TEC” value (TEC) was 5.7 % control, the IC50 (Ba/F3 TEL-JAK2) was 17.5 µM and the IC50 (Ba/F3 TEL-ABL) was 16.7 µM.
